Test results taken from paper PMC10892984, “Novel Antineoplastic Inducers of Mitochondrial Apoptosis in Human Cancer Cells” (Molecules, 2024).

Key:
[1] = Cytotoxicity (CellTiter 96 AQueous One, MTS); type: cell-based; settings: human; PBM cells
Method: (§1) The cytotoxicity and human immunodeficiency virus type 1 (HIV-1) strain LAI replication assays were performed in freshly explanted primary human peripheral blood mononuclear cells (PBM cells) according to published procedures. The assays were conducted at least in triplicate and treated statistically (if possible). HIV-1LAI (= HIV-1BRU = LAV-1) was assayed in primary human peripheral blood lymphocyte (PBL) cells in the presence of a drug being evaluated. The parameter for antiviral activity was a reduction in reverse transcriptase (RT) activity in the cell supernatant after Triton X–100-mediated lysis of released virions, as measured using [5α-^3H]dTTP (5α-tritiated thymidine 5′-triphosphate) incorporation into poly(rA)•poly(dT) directed by the primed RNA template poly(rA)•oligo(dT). […] Cytotoxicity on PBL and the other cells (CCRF−CEM, Vero) exerted by the test compounds was determined as described by Stuyver et al. by application of the CellTiter 96® AQueous One Solution Cell Proliferation Assay (Promega Corp., Madison, WI, USA). Briefly, the phenazine ethosulfate (PES)-coupled reduction of the tetrazolium salt 3-(4,5-dimethylthiazol-2-yl)-5-(3-carboxymethoxyphenyl)-2-(4-sulfophenyl)-2H-tetrazolium (MTS) to a purple, water-soluble formazan by living, undamaged cells was measured.

[2] = Cytotoxicity (CellTiter 96 AQueous One, MTS); type: cell-based, human; settings: human; CCRF−CEM cells
Method: (§2) The cytotoxicity and human immunodeficiency virus type 1 (HIV-1) strain LAI replication assays were performed in freshly explanted primary human peripheral blood mononuclear cells (PBM cells) according to published procedures. The assays were conducted at least in triplicate and treated statistically (if possible). HIV-1LAI (= HIV-1BRU = LAV-1) was assayed in primary human peripheral blood lymphocyte (PBL) cells in the presence of a drug being evaluated. The parameter for antiviral activity was a reduction in reverse transcriptase (RT) activity in the cell supernatant after Triton X–100-mediated lysis of released virions, as measured using [5α-^3H]dTTP (5α-tritiated thymidine 5′-triphosphate) incorporation into poly(rA)•poly(dT) directed by the primed RNA template poly(rA)•oligo(dT). […] The detailed assay methodology was reported by Schinazi et al. as based on an older assay system of Spira et al.. The experiments were conducted in triplicate and treated statistically using regression curve analysis (r^2 coefficient of determination). The RT inhibitor AZT (zidovudine, 3′-azido-3′-deoxythymidine; RETROVIR™) served as a positive control. Cytotoxicity on PBL and the other cells (CCRF−CEM, Vero) exerted by the test compounds was determined as described by Stuyver et al. by application of the CellTiter 96® AQueous One Solution Cell Proliferation Assay (Promega Corp., Madison, WI, USA). Briefly, the phenazine ethosulfate (PES)-coupled reduction of the tetrazolium salt 3-(4,5-dimethylthiazol-2-yl)-5-(3-carboxymethoxyphenyl)-2-(4-sulfophenyl)-2H-tetrazolium (MTS) to a purple, water-soluble formazan by living, undamaged cells was measured.

[3] = Cytotoxicity (CellTiter 96 AQueous One, MTS); type: cell-based, African green monkey (grivet) Chlorocebus aethiops; settings: African green monkey (Chlorocebus aethiops), Vero cells
Method: as §1

HIV-1LAI = HIV-1LAI replication reverse transcriptase assay in primary PBM cells; type: cell-based, human immunodeficiency virus type 1
Method: as §2

- EC50 (HIV-1LAI; Human immunodeficiency virus 1, PBMC, primary human PBM cells, reverse transcriptase activity in supernatant, read-out: Anti-HIV-1LAI activity EC50): 0.0044 ± 0.0018 µM
- EC90 (HIV-1LAI; Human immunodeficiency virus 1, PBMC, primary human PBM cells, reverse transcriptase activity in supernatant, read-out: Anti-HIV-1LAI activity EC90): 0.031 ± 0.015 µM
Compound: Cc1cn([C@H]2C[C@H](N=[N+]=[N-])[C@@H](CO)O2)c(=O)[nH]c1=O [AZT, 3′-azido-3′-deoxythymidine, reference compound]
- CC50 [1]: > 100 µM
- CC50 [2]: 14.3 µM
- CC50 [3]: 56 µM
- SI50, selectivity index CC50/EC50 (HIV-1LAI; PBM cells): >22,727
